The values below come from ChEMBL document CHEMBL4665650, “Towards a TREK-1/2 (TWIK-Related K+ Channel 1 and 2) dual activator tool compound: Multi-dimensional optimization of BL-1249” (Bioorg Med Chem Lett, 2019).

In data set [1] the target is Sodium-dependent noradrenaline transporter (Homo sapiens) (UniProt P23975). As to the kind of experiment: Displacement of [125I]RTI-55 from full length recombinant human NET expressed in MDCK cells at 30 uM after 180 mins by radiometric scintillation analysis relative to control. The data set is classed as cell-based.
Sodium-dependent noradrenaline transporter (Homo sapiens), sequence (P23975 whole entry): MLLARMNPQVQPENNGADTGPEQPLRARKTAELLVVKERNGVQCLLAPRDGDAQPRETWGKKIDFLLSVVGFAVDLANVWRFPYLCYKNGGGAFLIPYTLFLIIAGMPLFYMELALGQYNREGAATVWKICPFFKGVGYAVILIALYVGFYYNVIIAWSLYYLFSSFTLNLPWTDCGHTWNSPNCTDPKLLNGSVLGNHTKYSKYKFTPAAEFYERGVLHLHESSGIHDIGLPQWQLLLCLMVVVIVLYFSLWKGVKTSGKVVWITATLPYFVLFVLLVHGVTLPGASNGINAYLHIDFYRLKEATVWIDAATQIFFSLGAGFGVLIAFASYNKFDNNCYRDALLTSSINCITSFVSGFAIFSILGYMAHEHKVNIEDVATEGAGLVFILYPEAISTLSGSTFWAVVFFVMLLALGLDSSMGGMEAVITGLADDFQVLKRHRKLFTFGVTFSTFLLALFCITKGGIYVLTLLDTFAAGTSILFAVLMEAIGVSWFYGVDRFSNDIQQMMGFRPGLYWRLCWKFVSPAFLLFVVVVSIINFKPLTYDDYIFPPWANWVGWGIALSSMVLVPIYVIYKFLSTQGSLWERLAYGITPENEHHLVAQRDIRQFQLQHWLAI
Data set [2] is filed under the species Rattus norvegicus. The data set is described as follows: Displacement of [3H]GABA from rat brain GABA receptor at 30 uM after 20 mins by radiometric scintillation analysis relative to control.
The species named for data set [3] is Rattus norvegicus. As to the kind of experiment: Displacement of [125I]-Triiodothyronine from thyroid hormone receptors in rat at 30 uM incubated for 1080 mins by radiometric scintillation analysis relative to control.
In data set [4] the target is 5-hydroxytryptamine receptor 1A (Homo sapiens) (UniProt P08908). The data set is described as follows: Displacement of [3H]-8-OH-DPAT from full length recombinant human 5HT1A receptor expressed in CHO-K1 cells at 30 uM incubated for 60 mins by radiometric scintillation analysis relative to control. The class given is cell-based. A general note: In a radioligand displacement assay an active substance lowers the binding of a labelled ligand.

The species named for data set [5] is Rattus norvegicus. The data set is described as follows: Displacement of [35S] dATPalphaS from Wistar rat brain P2Y receptor at 30 uM incubated for 180 mins by radiometric scintillation analysis relative to control. The data set is classed as tissue-based.
Data set [6] concerns the target Cysteinyl leukotriene receptor 1 (Homo sapiens) (UniProt Q9Y271). As to the kind of experiment: Displacement of [3H]LTD4 from full length recombinant human CysLT1 Leukotriene receptor expressed in CHO-K1 cells at 30 uM incubated for 30 mins by radiometric scintillation analysis relative to control. The class given is cell-based.
For data set [7], the target named is Androgen receptor (Homo sapiens) (UniProt P10275). As to the kind of experiment: Displacement of [3H]methyltrienolone from human LNCaP cells derived androgen receptor at 30 uM measured after 1200 mins by radiometric scintillation analysis relative to control. The data set is classed as cell-based.
Data set [8] addresses Adenosine receptor A2a (Homo sapiens) (UniProt P29274). As to the kind of experiment: Displacement of [3H]CGS-21680 from full length recombinant human A2A receptor expressed in HEK293 cells at 30 uM measured after 90 mins by radiometric scintillation analysis relative to control. The data set is classed as cell-based.
The target in data set [9] is Adenosine receptor A1 (Homo sapiens) (UniProt P30542). The data set is described as follows: Displacement of [3H]DPCPX from recombinant full length human adenosine A1 receptor expressed in CHO-K1 cells at 30 uM incubated for 90 mins by radiometric scintillation analysis relative to control. The class given is cell-based.
Adenosine receptor A1 (Homo sapiens), sequence (P30542 whole entry): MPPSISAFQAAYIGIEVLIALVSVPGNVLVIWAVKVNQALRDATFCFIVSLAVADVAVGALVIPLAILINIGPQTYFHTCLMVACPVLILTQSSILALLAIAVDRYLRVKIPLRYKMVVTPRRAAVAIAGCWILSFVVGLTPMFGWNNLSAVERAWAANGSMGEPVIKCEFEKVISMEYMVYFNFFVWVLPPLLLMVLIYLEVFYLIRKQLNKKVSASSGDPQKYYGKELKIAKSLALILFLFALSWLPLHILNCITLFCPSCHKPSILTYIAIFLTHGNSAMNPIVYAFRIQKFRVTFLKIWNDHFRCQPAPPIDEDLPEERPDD
In data set [10] the target is Potassium/sodium hyperpolarization-activated cyclic nucleotide-gated channel 4 (Homo sapiens) (UniProt Q9Y3Q4). As to the kind of experiment: Activation of HCN4 (unknown origin) at 30 uM by manual patch clamp method relative to control. In general terms: The patch-clamp technique gives a direct electrical read-out from membranes.
Potassium/sodium hyperpolarization-activated cyclic nucleotide-gated channel 4 (Homo sapiens), sequence (Q9Y3Q4 whole entry): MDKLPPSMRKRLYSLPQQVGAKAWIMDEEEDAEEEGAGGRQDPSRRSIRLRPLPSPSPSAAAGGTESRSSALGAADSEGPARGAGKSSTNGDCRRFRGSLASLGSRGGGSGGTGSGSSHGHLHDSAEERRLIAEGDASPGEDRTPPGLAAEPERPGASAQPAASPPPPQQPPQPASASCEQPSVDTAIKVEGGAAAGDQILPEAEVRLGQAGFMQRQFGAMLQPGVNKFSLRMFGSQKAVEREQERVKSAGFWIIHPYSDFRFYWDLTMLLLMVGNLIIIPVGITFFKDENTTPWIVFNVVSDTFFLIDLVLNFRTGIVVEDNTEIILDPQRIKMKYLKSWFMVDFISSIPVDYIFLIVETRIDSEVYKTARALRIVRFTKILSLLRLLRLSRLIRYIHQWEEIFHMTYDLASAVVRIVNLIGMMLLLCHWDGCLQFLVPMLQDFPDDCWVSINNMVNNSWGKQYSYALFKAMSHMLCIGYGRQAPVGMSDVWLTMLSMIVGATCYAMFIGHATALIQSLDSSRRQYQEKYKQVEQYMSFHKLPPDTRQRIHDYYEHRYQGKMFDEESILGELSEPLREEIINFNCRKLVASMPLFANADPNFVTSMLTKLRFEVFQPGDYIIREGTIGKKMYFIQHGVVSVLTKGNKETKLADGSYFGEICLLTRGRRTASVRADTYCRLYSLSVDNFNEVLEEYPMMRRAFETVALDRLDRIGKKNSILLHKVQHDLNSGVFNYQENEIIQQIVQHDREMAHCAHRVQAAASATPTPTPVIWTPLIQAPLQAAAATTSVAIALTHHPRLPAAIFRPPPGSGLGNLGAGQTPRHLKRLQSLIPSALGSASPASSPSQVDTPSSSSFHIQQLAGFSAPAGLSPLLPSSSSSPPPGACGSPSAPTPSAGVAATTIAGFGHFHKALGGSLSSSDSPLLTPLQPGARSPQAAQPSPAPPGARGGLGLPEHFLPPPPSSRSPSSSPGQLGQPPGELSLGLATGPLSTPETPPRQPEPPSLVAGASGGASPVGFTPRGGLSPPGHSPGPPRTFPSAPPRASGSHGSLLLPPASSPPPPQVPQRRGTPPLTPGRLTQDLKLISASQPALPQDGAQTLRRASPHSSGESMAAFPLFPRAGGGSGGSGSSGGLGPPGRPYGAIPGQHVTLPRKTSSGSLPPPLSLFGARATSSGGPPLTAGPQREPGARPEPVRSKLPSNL
Data set [11] addresses Neuronal acetylcholine receptor subunit alpha-7 (Homo sapiens) (UniProt P36544). As to the kind of experiment: Inhibition of alpha7 nAChR (unknown origin) at 30 uM by manual patch clamp method relative to control.
The target of data set [12] is Potassium voltage-gated channel subfamily KQT member 3 (Homo sapiens) (UniProt O43525). As to the kind of experiment: Inhibition of Kv7.3 (unknown origin) at 30 uM by manual patch clamp method relative to control.
Potassium voltage-gated channel subfamily KQT member 3 (Homo sapiens), sequence (O43525 whole entry): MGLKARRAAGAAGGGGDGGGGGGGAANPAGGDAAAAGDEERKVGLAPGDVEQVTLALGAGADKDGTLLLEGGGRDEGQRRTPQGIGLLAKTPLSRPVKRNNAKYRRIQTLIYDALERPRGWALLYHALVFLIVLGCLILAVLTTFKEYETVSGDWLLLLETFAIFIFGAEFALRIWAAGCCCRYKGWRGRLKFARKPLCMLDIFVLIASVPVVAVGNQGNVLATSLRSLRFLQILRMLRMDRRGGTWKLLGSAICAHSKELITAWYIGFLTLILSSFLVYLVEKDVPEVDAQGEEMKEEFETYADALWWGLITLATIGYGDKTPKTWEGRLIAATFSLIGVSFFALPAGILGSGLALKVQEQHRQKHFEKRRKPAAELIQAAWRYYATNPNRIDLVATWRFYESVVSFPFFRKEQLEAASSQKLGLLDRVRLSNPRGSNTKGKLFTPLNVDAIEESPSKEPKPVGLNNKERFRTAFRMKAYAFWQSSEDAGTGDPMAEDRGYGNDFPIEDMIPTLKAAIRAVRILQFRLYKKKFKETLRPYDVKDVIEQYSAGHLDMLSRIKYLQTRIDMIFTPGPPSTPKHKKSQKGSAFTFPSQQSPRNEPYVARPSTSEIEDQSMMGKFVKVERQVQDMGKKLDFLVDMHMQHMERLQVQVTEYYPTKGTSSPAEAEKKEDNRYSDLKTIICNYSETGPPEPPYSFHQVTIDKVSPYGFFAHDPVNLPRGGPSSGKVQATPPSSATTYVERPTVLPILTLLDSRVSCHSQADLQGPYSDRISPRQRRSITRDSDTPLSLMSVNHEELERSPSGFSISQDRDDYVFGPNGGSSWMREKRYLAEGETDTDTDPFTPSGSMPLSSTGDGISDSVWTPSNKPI
Data set [13] has as its target Kv7.1 (Homo sapiens, UniProt P51787). The data set is described as follows: Inhibition of Kv7.1 (unknown origin) at 30 uM by manual patch clamp method relative to control.
The target of data set [14] is A-type potassium channel modulatory protein KCNIP2 (Homo sapiens) (UniProt Q9NS61). The data set is described as follows: Inhibition of KCHiP (unknown origin) at 30 uM by manual patch clamp method relative to control.
Data set [15] concerns the target A-type voltage-gated potassium channel KCND3 (Homo sapiens, UniProt Q9UK17). As to the kind of experiment: Activation of Kv4.3 (unknown origin) at 30 uM by manual patch clamp method relative to control.
Data set [16] addresses Potassium voltage-gated channel subfamily A member 3 (Homo sapiens) (UniProt P22001). The data set is described as follows: Inhibition of Kv1.3 (unknown origin) at 30 uM by manual patch clamp method relative to control.
In data set [17] the target is Intermediate conductance calcium-activated potassium channel protein 4 (Homo sapiens) (UniProt O15554). As to the kind of experiment: Activation of Kca3.1 (unknown origin) at 30 uM by manual patch clamp method relative to control.
Intermediate conductance calcium-activated potassium channel protein 4 (Homo sapiens), sequence (O15554 whole entry): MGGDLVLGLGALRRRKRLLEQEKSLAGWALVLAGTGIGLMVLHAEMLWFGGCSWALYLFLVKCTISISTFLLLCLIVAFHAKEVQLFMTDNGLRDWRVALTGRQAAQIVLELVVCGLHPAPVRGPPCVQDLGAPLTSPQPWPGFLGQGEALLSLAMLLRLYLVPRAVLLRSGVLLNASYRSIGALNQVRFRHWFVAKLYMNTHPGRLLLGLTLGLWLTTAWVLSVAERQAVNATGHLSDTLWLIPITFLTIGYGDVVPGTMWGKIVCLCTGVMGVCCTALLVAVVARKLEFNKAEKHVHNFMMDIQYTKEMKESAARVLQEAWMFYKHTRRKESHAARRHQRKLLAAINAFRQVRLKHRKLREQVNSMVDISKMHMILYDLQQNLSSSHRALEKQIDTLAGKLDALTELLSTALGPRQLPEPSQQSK
Data set [18] concerns the target Inward rectifier potassium channel 2 (Homo sapiens, UniProt P63252). The data set is described as follows: Activation of Kir2.1 (unknown origin) at 30 uM by manual patch clamp method relative to control.
Data set [19] has as its target T1, Potassium channel subfamily K member 10 (Homo sapiens, UniProt P57789).
T1 sequence (P57789 whole entry): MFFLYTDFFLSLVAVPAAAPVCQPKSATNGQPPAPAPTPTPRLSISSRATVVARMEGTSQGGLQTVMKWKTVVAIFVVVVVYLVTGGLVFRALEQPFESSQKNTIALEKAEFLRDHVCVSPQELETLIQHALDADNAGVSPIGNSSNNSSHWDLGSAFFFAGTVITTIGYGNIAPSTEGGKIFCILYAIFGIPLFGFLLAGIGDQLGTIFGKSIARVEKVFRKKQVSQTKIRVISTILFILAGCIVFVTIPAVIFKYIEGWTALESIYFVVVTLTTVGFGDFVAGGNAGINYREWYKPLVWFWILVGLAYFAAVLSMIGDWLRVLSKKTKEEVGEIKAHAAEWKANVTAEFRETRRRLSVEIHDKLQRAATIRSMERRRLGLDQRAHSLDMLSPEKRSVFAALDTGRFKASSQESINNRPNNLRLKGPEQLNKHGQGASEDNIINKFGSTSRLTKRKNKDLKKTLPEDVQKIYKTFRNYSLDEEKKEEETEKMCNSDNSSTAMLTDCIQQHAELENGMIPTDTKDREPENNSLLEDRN
The data set is described as follows: Activation of human TREK2 by thallium flux mobilization assay.

In data set [20] the target is T2, Potassium channel subfamily K member 2 (Homo sapiens, UniProt O95069).
T2 sequence (O95069 whole entry): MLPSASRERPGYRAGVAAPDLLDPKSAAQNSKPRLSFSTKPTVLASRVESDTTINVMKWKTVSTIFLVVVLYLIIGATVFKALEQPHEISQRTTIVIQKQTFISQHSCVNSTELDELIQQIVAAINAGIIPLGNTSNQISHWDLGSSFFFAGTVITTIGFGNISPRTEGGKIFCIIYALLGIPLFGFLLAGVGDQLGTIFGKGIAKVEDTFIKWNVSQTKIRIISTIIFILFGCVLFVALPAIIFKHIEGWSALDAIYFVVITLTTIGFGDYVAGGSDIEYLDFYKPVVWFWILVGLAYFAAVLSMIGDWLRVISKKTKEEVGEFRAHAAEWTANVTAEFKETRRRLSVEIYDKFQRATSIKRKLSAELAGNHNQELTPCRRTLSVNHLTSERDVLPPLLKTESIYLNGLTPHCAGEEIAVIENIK
The data set is described as follows: Activation of human TREK1 by thallium flux mobilization assay.

In data set [21] the target is T3, Potassium channel subfamily K member 10 (Homo sapiens) (UniProt P57789).
T3 sequence (whole entry): T1 sequence (P57789 whole entry)
As to the kind of experiment: Activation of human TREK2 at 30 uM by thallium flux mobilization assay relative to control. Particulars: filed as activator.

Data set [22] deals with T4, Potassium channel subfamily K member 2 (Homo sapiens) (UniProt O95069).
T4 sequence (whole entry): T2 sequence (O95069 whole entry)
The data set is described as follows: Activation of human TREK1 at 30 uM by thallium flux mobilization assay relative to control. Particulars: filed as activator.

Data set [23] can be described thus: AUC in rat at 3 mg/kg, po. The class given is ADME, organism-based. Details: dose 3 mg/kg. Particulars: in vivo.
The nature of data set [24]: Elimination half life in rat at 3 mg/kg, po. The class given is ADME, organism-based. Particulars: in vivo, read-out: beta t1/2 (converted).
Data set [25] can be described thus: Cmax in rat at 3 mg/kg, po. Particulars: in vivo. Set-up: route oral, dose 3 mg/kg. The class given is ADME, organism-based.
The nature of data set [26]: Fraction unbound in mouse plasma. The data set is classed as ADME, cell-free.
Data set [27] can be described thus: Fraction unbound in human plasma. The class given is ADME, cell-free.
Data set [28] can be described thus: Fraction unbound in rat plasma. The data set is classed as ADME, cell-free.
For data set [29], the target named is Sodium-dependent dopamine transporter (Homo sapiens) (UniProt Q01959). The data set is described as follows: Displacement of [125I]RTI-55 from full length recombinant human dopamine transporter expressed in CHO-S cells at 30 uM after 180 mins by radiometric scintillation analysis relative to control. The class given is cell-based.
Data set [30] can be described thus: Half life in rat at 0.05 mg/kg, iv administered as cassette dose. The data set is classed as ADME, organism-based. Particulars: in vivo.

Potassium voltage-gated channel subfamily A member 3 (Homo sapiens), sequence (P22001 whole entry): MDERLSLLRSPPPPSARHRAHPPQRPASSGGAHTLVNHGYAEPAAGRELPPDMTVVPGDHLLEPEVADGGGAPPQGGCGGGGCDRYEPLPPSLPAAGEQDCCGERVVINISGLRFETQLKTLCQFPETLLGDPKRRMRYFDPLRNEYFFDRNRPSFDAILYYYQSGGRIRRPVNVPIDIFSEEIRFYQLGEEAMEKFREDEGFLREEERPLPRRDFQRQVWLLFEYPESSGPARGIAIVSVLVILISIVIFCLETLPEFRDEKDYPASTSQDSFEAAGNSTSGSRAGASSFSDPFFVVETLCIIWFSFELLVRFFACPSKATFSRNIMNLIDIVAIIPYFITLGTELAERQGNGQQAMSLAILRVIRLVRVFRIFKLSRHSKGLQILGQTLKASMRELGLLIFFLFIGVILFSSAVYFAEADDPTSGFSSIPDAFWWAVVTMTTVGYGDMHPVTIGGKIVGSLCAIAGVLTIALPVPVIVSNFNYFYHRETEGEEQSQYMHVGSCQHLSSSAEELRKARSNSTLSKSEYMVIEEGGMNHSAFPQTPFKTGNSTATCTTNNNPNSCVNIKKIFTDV
Adenosine receptor A2a (Homo sapiens), sequence (P29274 whole entry): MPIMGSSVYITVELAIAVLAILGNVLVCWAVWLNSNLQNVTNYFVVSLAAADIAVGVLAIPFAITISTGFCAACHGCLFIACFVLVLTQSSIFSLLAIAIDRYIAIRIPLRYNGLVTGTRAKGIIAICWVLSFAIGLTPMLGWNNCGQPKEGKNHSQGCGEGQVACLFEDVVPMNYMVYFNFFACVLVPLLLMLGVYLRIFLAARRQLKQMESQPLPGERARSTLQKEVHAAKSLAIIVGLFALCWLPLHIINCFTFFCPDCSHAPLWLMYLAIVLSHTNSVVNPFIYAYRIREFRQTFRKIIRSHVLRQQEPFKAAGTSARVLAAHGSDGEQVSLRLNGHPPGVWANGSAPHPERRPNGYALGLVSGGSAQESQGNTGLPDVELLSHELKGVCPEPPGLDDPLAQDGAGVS
Cysteinyl leukotriene receptor 1 (Homo sapiens), sequence (Q9Y271 whole entry): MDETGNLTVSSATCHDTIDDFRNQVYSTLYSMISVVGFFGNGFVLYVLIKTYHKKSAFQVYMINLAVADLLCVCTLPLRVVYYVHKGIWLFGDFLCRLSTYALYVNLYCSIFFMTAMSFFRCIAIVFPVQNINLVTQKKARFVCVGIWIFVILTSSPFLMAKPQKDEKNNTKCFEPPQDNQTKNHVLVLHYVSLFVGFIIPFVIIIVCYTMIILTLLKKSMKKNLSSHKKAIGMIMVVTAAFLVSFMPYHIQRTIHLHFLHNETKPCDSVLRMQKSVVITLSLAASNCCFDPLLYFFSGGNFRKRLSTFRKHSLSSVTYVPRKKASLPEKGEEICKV

Broadly, the inhibition is how much of the control response was suppressed. By EC50 is commonly meant the concentration giving half of the maximal effect. The low end stands for higher potency in that assay, the high end for lower potency in that assay. The term AUC denotes the area under the concentration-time curve, a measure of exposure. Lower therefore signals less exposure. In general, Cmax refers to the peak of the concentration-time curve. By fraction unbound is commonly meant the share of the substance not bound to proteins or other matrix. A low value points to little free substance. In the case of `O=C(Nc1cc(F)c(Br)cc1C(=O)O)c1ccc(SC(F)(F)F)cc1`, the inhibition in [1] came out at 77%; in data set [2], 70%; in data set [3] it was 79%; in [4] it was 79%; in [5], 90%; in data set [6], 69%. Besides, the inhibition in [7] was found to be 79%; in [8], 55%; in data set [9], 70%; in [11], 7%; in data set [12], 39%; in [14], 76%. Also, the values for the inhibition in [16] and in data set [29] were 94% and 67%, respectively. For the same compound, the Activity in data set [10] was -32%; in data set [15], -21%; in data set [17], -9%; in data set [18] it was -16%; in data set [21], 84%; in data set [22], 101%. Further, 30 µM produced 57% inhibition in data set [13]. Besides, the EC50 in [19] was 5.5 µM; in data set [20], 6.1 µM. In addition, the area under the curve (AUC) in [23] was 60.6 µM·h. In addition, the half-life in data set [24] is 6.3 h. The Cmax in data set [25] is 8.8 µM. Further, the fraction unbound in [26] stood at 0.052; in data set [27], 0.003; in data set [28] it was 0.041.

Take `c1ccc(-c2nnn[nH]2)c(Nc2cccc3c2CCCC3)c1`: the EC50 in data set [19] turned out to be 7.7 µM; in [20] it was 5.2 µM. Also, the Activity amounted to 133% in data set [21] and 109% in data set [22]. Moreover, the fraction unbound in data set [27] was < 0.001; in data set [28] it was 0.001. This compound also showed a half-life in data set [30] of 3 min.
